B1: Fe-AAdh (CTN_0580) (Thermotoga neapolitana DSM 4359) (protein)
chain: FKISCYLPTEIIFRVGAVDELEERAKKLGKKALIVTGRSSTKKTGLLQRVQDLLKKAGVESIVFDKIVPNPISDHVDEAAEIVRKEKIDFIVGLGGGSPIDSAKAISITAPNEGKFWDYVPVGGGKIPEKSIPVVAIPTTHGTGTEADPFAVITNPETKEKVGIGYRNTFPVLSLVDPEVMKTLPKDQTAYTSMDAFYHAIEAFLNVNANPYSDVLALDAMKRIVTYLPVAYENGEDMEARTNLAWASTEAGITETLTGVIANHALEHGLSGFYPEITHGLGLCITGPYLFEYIFDHAYERLAIVGREVFGVYETDDRKAGKLAIKKLRDFQEMFGLNKRLSELGVKEEDIPKMAETGYRILNGVVVVTPGNLTAKDMEEIFRRCY
notes: full-length from genomic DNA, start Met omitted in primer (vector-encoded N-terminal residues), C-terminal His-tag kept; E. coli JM109, pHsh; heat treatment, Ni column, anaerobic

Assays:
Aldh (CTN_1548) = molecular target: T1, Aldh (CTN_1548) (Thermotoga neapolitana, UniProt B9K9U1); experiment: spectrophotometric NAD(P)H formation, […] nm; assay type: biochemical; conditions: 20 mM acetaldehyde, 1 mM NAD(P)+, no CoASH, 85 °C, various pH
T1 construct: full-length from genomic DNA, vector-encoded N-terminal residues, C-terminal His-tag kept; E. coli JM109, pHsh; heat treatment, Ni column
T1 sequence (B9K9U1 2-472): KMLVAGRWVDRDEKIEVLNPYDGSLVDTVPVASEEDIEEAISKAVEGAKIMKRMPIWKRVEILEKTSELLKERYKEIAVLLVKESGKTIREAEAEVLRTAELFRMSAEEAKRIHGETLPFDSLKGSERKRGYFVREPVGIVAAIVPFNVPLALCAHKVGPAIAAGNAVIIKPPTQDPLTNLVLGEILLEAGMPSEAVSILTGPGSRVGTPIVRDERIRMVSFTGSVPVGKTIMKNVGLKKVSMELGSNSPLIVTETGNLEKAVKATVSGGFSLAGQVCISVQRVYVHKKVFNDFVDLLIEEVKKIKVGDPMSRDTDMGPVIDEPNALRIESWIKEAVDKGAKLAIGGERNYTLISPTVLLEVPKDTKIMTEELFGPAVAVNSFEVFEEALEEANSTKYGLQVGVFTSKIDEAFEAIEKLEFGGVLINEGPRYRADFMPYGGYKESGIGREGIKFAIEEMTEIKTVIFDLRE

purified protein = substrate: CC(=O)SCCNC(=O)CCNC(=O)[C@H](O)C(C)(C)COP(=O)(O)OP(=O)(O)OC[C@H]1O[C@@H](n2cnc3c(N)ncnc32)[C@H](O)[C@@H]1OP(=O)(O)O; experiment: purified protein; assay type: biochemical, Thermotoga neapolitana; conditions: 0.25 mM NADPH, pH 6.5, 80 °C, reduction to acetaldehyde

| Molecule | spectrophotometric NAD(P)H formation, 340 nm (Aldh (CTN_1548)) | Km (purified protein) [µM] |
| --- | --- | --- |
| CC=O [ac-ald] | exhibited only CoA-independent activity that oxidizes ac-ald to acetic acid |  |
| NC(=O)c1ccc[n+]([C@@H]2O[C@H](COP(=O)(O)OP(=O)(O)OC[C@H]3O[C@@H](n4cnc5c(N)ncnc54)[C@H](O)[C@@H]3O)[C@@H](O)[C@H]2O)c1 [NAD^+] | catalyzed the oxidation of aldehydes to acetic acid using either NAD^+ or NADP^+ as coenzyme |  |
| B1 |  | 1750 |

Reference: PMC7806712, “A novel bifunctional aldehyde/alcohol dehydrogenase catalyzing reduction of acetyl-CoA to ethanol at temperatures up to 95 °C” (Scientific Reports, 2021)
